Test results published in patent publication US20260027067A1, “TRIENTINE LIQUID DOSAGE FORMS” (BIOPHORE INDIA PHARMACEUTICALS PVT. LTD., priority 2022, published 2026).
Counter-ions that a name gives are not always drawn.

Experiments:
[1] = Selection of sweeteners and flavoring agents (formulation trials); details: used as sweetener in trientine tetrahydrochloride oral solution
[2] = crystalline powder; cited from earlier work

Compound: O=C1NS(=O)(=O)c2ccccc21.[Na] [saccharin sodium]
- compatibility of the sweetener in the formulation [1]: incompatibility in the form of milky white curdling

Compound: Cl.Cl.Cl.Cl.NCCNCCNCCN [Trientine tetrahydrochloride salt, Trientine tetrahydrochloride]
- hygroscopicity [2]: not hygroscopic

Compound: NCCNCCNCCN [Trientine dihydrochloride salt, Trientine dihydrochloride]
- hygroscopicity [2]: hygroscopic
